The subject of one experiment is Brucella suis 1330. The experiment is classed as cell-based.
The subject of experiment [1] is B. suis in J774A.1 murine macrophage-like cells. The experiment is classed as cell-based, Brucella suis.
A further experiment has as its system Brucella melitensis 16M. Type of experiment: cell-based.
The test system of another experiment is Brucella abortus 2308. The experiment is classed as cell-based.

Marks after values point to notes of the source that are not given here.

This is an account of results in paper PMC3834731 (International journal of antimicrobial agents, 2013).

“H-KFFKFFKFFK-O-catactcttcct-NH2 [Anti-lacZ, reference compound]”: in the experiment with Brucella suis 1330, the “Log CFU/100 μL/well” value is on record as 2.83 ± 0.13 Log CFU/100 μL/well, the Log reduction amounted to 0.23 and the “inhibition of growth of B. suis in culture (in words)” value (from here on “inhibition of growth of B. suis”) was “did not inhibit the growth”. Moreover, in experiment [1], the “Log CFU” value was 3.45 ± 0.31 Log CFU and the Log reduction result is reported as “+0.17”.

Regarding H-KFFKFFKFFK-O-gctcatttcgc-NH2 [kdtA], in the experiment on Brucella suis 1330, the “Log CFU/100 μL/well” value was determined as 1.56 ± 1.10 Log CFU/100 μL/well, the Log reduction is recorded as 1.50 ^* and the “inhibition of growth of B. suis” value is on record as “significantly inhibited the growth”.

As to H-KFFKFFKFFK-O-cattgtgtcgc-NH2 [tsf], in the experiment with Brucella suis 1330, the “Log CFU/100 μL/well” value is given as 1.02 ± 0.92 Log CFU/100 μL/well, the Log reduction is 2.04 ^* and the “inhibition of growth of B. suis” value was “significantly inhibited the growth”.

As to H-KFFKFFKFFK-O-ctcatgtcgg-NH2 [acpP], in the experiment with Brucella suis 1330, the “Log CFU/100 μL/well” value was 3.05 ± 0.10 Log CFU/100 μL/well and the Log reduction is reported as 0.01. Besides, in experiment [1], the “Log CFU” value is reported as 3.37 ± 0.18 Log CFU and the Log reduction entry is reported as “+0.09”.

Turning to H-KFFKFFKFFK-O-cattacagatt-NH2 [dnaG], in the experiment with Brucella suis 1330, the “Log CFU/100 μL/well” value came to 2.91 ± 0.02 Log CFU/100 μL/well, the Log reduction turned out to be 0.15 and the “inhibition of growth of B. suis” value is listed as “not in Brucella cultures”. Moreover, in experiment [1], the “Log CFU” value is listed as 1.78 ± 0.56 Log CFU, the Log reduction was 1.50 ^* and the “inhibition of intracellular B. suis (in words)” value was “showed significant inhibition”.

H-KFFKFFKFFK-O-ttcatgcctgt-NH2 [polA]: in the experiment on Brucella suis 1330, the “Log CFU/100 μL/well” value amounted to 0.54 ± 0.09 Log CFU/100 μL/well and the “inhibition of growth of B. suis” value is recorded as “significantly inhibited the growth”. In experiment [1], the “Log CFU” value amounted to 2.27 ± 0.69 Log CFU, the Log reduction is recorded as 1.01 ^* and the “inhibition of intracellular B. suis (in words)” value is on record as “showed significant inhibition”. Also, the “effectiveness against B. melitensis 16M (in words)” value in the experiment on Brucella melitensis 16M is given as “effective”. Also, the “effectiveness against B. abortus 2308 (in words)” value with Brucella abortus 2308 is “effective”.

As for H-KFFKFFKFFK-O-catatcgtcgga-NH2 [gyrA], in the experiment with Brucella suis 1330, the “Log CFU/100 μL/well” value came out at 3.92 ± 0.06 Log CFU/100 μL/well, the Log reduction is on record as 0.23 and the “inhibition of growth of B. suis” value is “not in Brucella cultures”. Besides, in experiment [1], the “Log CFU” value is on record as 2.47 ± 0.51 Log CFU, the Log reduction was 0.81 ^* and the “inhibition of intracellular B. suis (in words)” value was “showed significant inhibition”.

With H-KFFKFFKFFK-O-catcgtcgctc –NH2 [rpoB], in the experiment on Brucella suis 1330, the “Log CFU/100 μL/well” value is on record as 0 ^* Log CFU/100 μL/well, the “Log CFU/mL” value is given as 0 Log CFU/mL and the “inhibition of growth of B. suis” value was “significantly inhibited the growth”.

For the substance H-KFFKFFKFFK-O-catttttcgtct-NH2 [asd], in the experiment with Brucella suis 1330, the “Log CFU/100 μL/well” value was 3.27 ± 0.09 Log CFU/100 μL/well and the “inhibition of growth of B. suis” value is “not in Brucella cultures”. For the same substance, in experiment [1], the “Log CFU” value is listed as 1.84 ± 0.50 Log CFU, the Log reduction is given as 1.44 ^* and the “inhibition of intracellular B. suis (in words)” value is listed as “showed significant inhibition”.
